# Measurements published in patent US8242280B2, “Fused ring heterocycle kinase modulators” (SGX Pharmaceuticals, Inc., priority 2007, dated 2012).
# Tests used:
# Ba/F3 cells, ABL1 WT = Ba/F3 cells, ABL1 WT (Homo sapiens, UniProt P00519); experiment: 96-well XTT cell survival assay, Ba/F3 ABL1 WT; type: cell-based; conditions: 72 hours, read-out: ABL1 WT XTT [Ba/F3] IC50
# Procedure, shortened: (§1)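 Ba/F3 cells carrying wild-type or T315I ABL1 were seeded at 5000-8000 per well with graded compound concentrations in duplicate and grown 72 hours at 37° C. Survival was read by XTT/PMS reduction after a further 2-6 h, as absorbance at 405 nm with 650 nm background correction.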
# [1] = molecular target: T1, unphosphorylated T315I Abl kinase domain (Mus musculus, UniProt P00520, T315I); experiment: c-Abl T315I 0P bioassay (pyruvate kinase/lactate dehydrogenase coupled enzyme assay); type: biochemical; conditions: zero phosphorylation state (0P), 10 μM ATP, read-out: AbI T315I 0P IC50
# T1 construct: purified and unphosphorylated T315I Abl kinase domain; made in house; host or cells: E. coli BL21(DE3) (Codon+RIL or pSA0145 strain)
# T1 sequence (P00520 242-493 T315I limits assumed): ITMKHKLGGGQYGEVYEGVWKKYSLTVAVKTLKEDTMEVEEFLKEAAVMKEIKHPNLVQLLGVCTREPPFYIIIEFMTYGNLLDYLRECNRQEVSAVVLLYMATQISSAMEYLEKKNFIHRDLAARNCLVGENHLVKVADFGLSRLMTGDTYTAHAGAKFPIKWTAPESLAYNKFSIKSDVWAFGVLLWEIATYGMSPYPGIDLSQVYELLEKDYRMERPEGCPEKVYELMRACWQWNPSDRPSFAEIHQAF
# Ba/F3 cells, ABL1 T315I = Ba/F3 cells, ABL1 T315I (Homo sapiens, UniProt P00519, T315I, cells depend on it); experiment: 96-well XTT cell survival assay, Ba/F3 ABL1 T315I; type: cell-based; conditions: 72 hours, read-out: ABL1 T315I XTT [Ba/F3] IC50
# Procedure, shortened: as §1
SMILES,IC50 [1] [µM],"GI50 (Ba/F3 cells, ABL1 WT) [µM]","GI50 (Ba/F3 cells, ABL1 T315I) [µM]"
CN(C)C(=O)C(O)c1cncc(-c2cnc3[nH]cc(-c4ccc(Cl)c(Cl)c4)c3c2)c1 (stereo not drawn),< 0.05,> 1,> 1
COc1ccccc1-c1n[nH]c2ncc(-c3cccc(CO)n3)cc12,< 0.05,< 1,> 1
CN(C)C(=O)C(O)c1cncc(-c2cnc3[nH]cc(-c4cccnc4)c3c2)c1 (stereo not drawn),0.05 to 0.5,> 1,> 1
COc1ccccc1-c1n[nH]c2ncc(-c3cccc(C(C(=O)N4CCC(N(C)C)C4)N(C)C)c3)cc12 (stereo not drawn),0.05 to 0.5,> 1,> 1
CN(C)C(=O)C(O)c1cc(-c2cnc3[nH]cc(-c4ccccc4F)c3c2)cnc1N (stereo not drawn),< 0.05,< 1,< 1
COc1ccccc1-c1n[nH]c2ncc(-c3cccc([C@@H](O)[C@H](O)C(C)C)c3)cc12,< 0.05,< 1,< 1

# Continued, in another order:
IC50 [1] [µM],SMILES,"GI50 (Ba/F3 cells, ABL1 WT) [µM]","GI50 (Ba/F3 cells, ABL1 T315I) [µM]"
< 0.05,COc1ccccc1-c1n[nH]c2ncc(-c3cccc(C(O)c4ncco4)c3)cc12 (stereo not drawn),< 1,> 1
< 0.05,COc1ccccc1-c1n[nH]c2ncc(-c3cccc(C(O)C(=O)N(C)C4CCOCC4)c3)cc12 (stereo not drawn),< 1,< 1
< 0.05,COc1ccccc1-c1c[nH]c2ncc(-c3cncc(C(O)CC(C)C)c3)cc12 (stereo not drawn),< 1,< 1
